Laboratory results: patent US6770597B2, “Benzohydrazide derivatives as herbicides and desiccant compositions containing them” (Ishihara Sangyo Kaisha, Ltd., priority 2002, dated 2004)

Assays:
Type in all cases: in vivo
[1] = test system: sicklepod (Cassia obtusifolia, CASOB); assay: Greenhouse herbicide screen, pre-emerge application, phytotoxicity rating; settings: PRE emergent, 14 days after application, rating scale 0-100
Method in brief: (§1)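 Each pot received a simulated field application of test compound in acetone at 15–1000 g ai/ha. At 14 days, plants were rated from 0 (no damage) through 100 (all plants dead).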

[2] = test system: johnsongrass (Sorghum halepense, SORHA); assay: as above; settings: PRE emergent, 14 days after application, rating scale 0-100
Method in brief: as §1

[3] = test system: cocklebur (Xanthium strumarium, XANST); assay: as above; settings: PRE emergent, 14 days after application, rating scale 0-100
Method in brief: as §1

[4] = test system: ivyleaf morningglory (Ipomoea hederacea, IPOHE); assay: as above; settings: PRE emergent, 14 days after application, rating scale 0-100
Method in brief: as §1

[5] = test system: large crabgrass (Digitaria sanguinalis, DIGSA); assay: as above; settings: PRE emergent, 14 days after application, rating scale 0-100
Method in brief: as §1

[6] = test system: green foxtail (Setaria viridis, SETVI); assay: as above; settings: PRE emergent, 14 days after application, rating scale 0-100
Method in brief: as §1

[7] = test system: lambsquarters (Chenopodium album, CHEAL); assay: as above; settings: PRE emergent, 14 days after application, rating scale 0-100
Method in brief: as §1

[8] = test system: velvetleaf (Abutilon theophrasti, ABUTH); assay: as above; settings: PRE emergent, 14 days after application, rating scale 0-100
Method in brief: as §1

[9] = test system: barnyardgrass (Echinochloa crus-galli, ECHCG); assay: as above; settings: PRE emergent, 14 days after application, rating scale 0-100
Method in brief: as §1

[10] = test system: redroot pigweed (Amaranthus retrofiexus, AMARE); assay: as above; settings: PRE emergent, 14 days after application, rating scale 0-100
Method in brief: as §1

[11] = test system: common ragweed (Ambrosia artemisiifolia L., AMBEL); assay: as above; settings: PRE emergent, 14 days after application, rating scale 0-100
Method in brief: as §1

[12] = test system: field corn (Zea mays L., var. Dekalb 535, CORN); assay: Greenhouse herbicide screen, pre-emerge application, crop damage rating; settings: PRE emergent, 14 days after application, rating scale 0-100
Method in brief: as §1

[13] = test system: upland rice (Oryza sp., var.Cocodrie, RICE); assay: as above; settings: PRE emergent, 14 days after application, rating scale 0-100
Method in brief: as §1

[14] = test system: sicklepod (Cassia obtusifolia, CASOB); assay: Greenhouse herbicide screen, post-emerge application, phytotoxicity rating; settings: POST emergent, 14 days after application, scale 0-100
Method in brief: as §1

[15] = test system: johnsongrass (Sorghum halepense, SORHA); assay: as above; settings: POST emergent, 14 days after application, scale 0-100
Method in brief: as §1

[16] = test system: cocklebur (Xanthium strumarium, XANST); assay: as above; settings: POST emergent, 14 days after application, scale 0-100
Method in brief: as §1

[17] = test system: ivyleaf morningglory (Ipomoea hederacea, IPOHE); assay: as above; settings: POST emergent, 14 days after application, scale 0-100
Method in brief: as §1

[18] = test system: large crabgrass (Digitaria sanguinalis, DIGSA); assay: as above; settings: POST emergent, 14 days after application, scale 0-100
Method in brief: as §1

[19] = test system: green foxtail (Setaria viridis, SETVI); assay: as above; settings: POST emergent, 14 days after application, scale 0-100
Method in brief: as §1

[20] = test system: lambsquarters (Chenopodium album, CHEAL); assay: as above; settings: POST emergent, 14 days after application, scale 0-100
Method in brief: as §1

[21] = test system: velvetleaf (Abutilon theophrasti, ABUTH); assay: as above; settings: POST emergent, 14 days after application, scale 0-100
Method in brief: as §1

[22] = test system: barnyardgrass (Echinochloa crus-galli, ECHCG); assay: as above; settings: POST emergent, 14 days after application, scale 0-100
Method in brief: as §1

[23] = test system: redroot pigweed (Amaranthus retrofiexus, AMARE); assay: as above; settings: POST emergent, 14 days after application
Method in brief: as §1

[24] = test system: common ragweed (Ambrosia artemisiifolia L., AMBEL); assay: as above; settings: POST emergent, 14 days after application, scale 0-100
Method in brief: as §1

[25] = test system: field corn (Zea mays L., var. Dekalb 535, CORN); assay: Greenhouse herbicide screen, post-emerge application, crop damage rating; settings: POST emergent, 14 days after application, scale 0-100
Method in brief: as §1

[26] = test system: upland rice (Oryza sp., var.Cocodrie, RICE); assay: as above; settings: POST emergent, 14 days after application, scale 0-100
Method in brief: as §1

[27] = 63 g ai/ha, scale 0-100 (0 no damage, 100 complete death)

C#CCOC(=NN=C(C(C)(C)C)C(C)(C)C)c1cc(-n2c(=O)cc(C(F)(F)F)n(C)c2=O)c(F)cc1Cl [Compound 5-7]
phytotoxicity rating CASOB ([1]; 63 g ai/ha): 0
phytotoxicity rating CASOB ([1]; 250 g ai/ha): 50
phytotoxicity rating SORHA ([2]; 63 g ai/ha): 15
phytotoxicity rating SORHA ([2]; 250 g ai/ha): 20
phytotoxicity rating XANST ([3]; 63 g ai/ha): 0
phytotoxicity rating XANST ([3]; 250 g ai/ha): 0
phytotoxicity rating IPOHE ([4]; 63 g ai/ha): 0
phytotoxicity rating IPOHE ([4]; 250 g ai/ha): 30
phytotoxicity rating DIGSA ([5]; 63 g ai/ha): 0
phytotoxicity rating DIGSA ([5]; 250 g ai/ha): 50
phytotoxicity rating SETVI ([6]; 63 g ai/ha): 30
phytotoxicity rating SETVI ([6]; 250 g ai/ha): 80
phytotoxicity rating CHEAL ([7]; 63 g ai/ha): 100
phytotoxicity rating CHEAL ([7]; 250 g ai/ha): 100
phytotoxicity rating ABUTH ([8]; 63 g ai/ha): 50
phytotoxicity rating ABUTH ([8]; 250 g ai/ha): 99
phytotoxicity rating ECHCG ([9]; 63 g ai/ha): 0
phytotoxicity rating ECHCG ([9]; 250 g ai/ha): 0
phytotoxicity rating AMARE ([10]; 63 g ai/ha): 60
phytotoxicity rating AMARE ([10]; 250 g ai/ha): 100
phytotoxicity rating AMBEL ([11]; 63 g ai/ha): 0
phytotoxicity rating AMBEL ([11]; 250 g ai/ha): 50
crop damage rating CORN ([12]; 63 g ai/ha): 0
crop damage rating CORN ([12]; 250 g ai/ha): 10
crop damage rating RICE ([13]; 63 g ai/ha): 0
crop damage rating RICE ([13]; 250 g ai/ha): 0
phytotoxicity rating CASOB ([14]; 63 g ai/ha): 50
phytotoxicity rating CASOB ([14]; 250 g ai/ha): 50
phytotoxicity rating SORHA ([15]; 63 g ai/ha): 0
phytotoxicity rating SORHA ([15]; 250 g ai/ha): 15
phytotoxicity rating XANST ([16]; 63 g ai/ha): 0
phytotoxicity rating XANST ([16]; 250 g ai/ha): 55
phytotoxicity rating IPOHE ([17]; 63 g ai/ha): 60
phytotoxicity rating IPOHE ([17]; 250 g ai/ha): 70
phytotoxicity rating DIGSA ([18]; 63 g ai/ha): 0
phytotoxicity rating DIGSA ([18]; 250 g ai/ha): 50
phytotoxicity rating SETVI ([19]; 63 g ai/ha): 50
phytotoxicity rating SETVI ([19]; 250 g ai/ha): 55
phytotoxicity rating CHEAL ([20]; 63 g ai/ha): 70
phytotoxicity rating CHEAL ([20]; 250 g ai/ha): 85
phytotoxicity rating ABUTH ([21]; 63 g ai/ha): 30
phytotoxicity rating ABUTH ([21]; 250 g ai/ha): 70
phytotoxicity rating ECHCO ([22]; 63 g ai/ha): 35
phytotoxicity rating ECHCO ([22]; 250 g ai/ha): 55
phytotoxicity rating AMARE [23, 27]: 70
phytotoxicity rating AMARE ([23]; 250 g ai/ha, scale 0-100): 99
phytotoxicity rating AMBEL ([24]; 63 g ai/ha): 50
phytotoxicity rating AMBEL ([24]; 250 g ai/ha): 55
crop damage rating CORN ([25]; 63 g ai/ha): 0
crop damage rating CORN ([25]; 250 g ai/ha): 15
crop damage rating RICE ([26]; 63 g ai/ha): 10
crop damage rating RICE ([26]; 250 g ai/ha): 0

Cn1c(C(F)(F)F)cc(=O)n(-c2cc(C(=O)NN3CCCC3)c(Cl)cc2F)c1=O [Compound 1-11]
phytotoxicity rating CASOB ([1]; 63 g ai/ha): 70
phytotoxicity rating CASOB ([1]; 250 g ai/ha): 99
phytotoxicity rating SORHA ([2]; 63 g ai/ha): 35
phytotoxicity rating SORHA ([2]; 250 g ai/ha): 99
phytotoxicity rating XANST ([3]; 63 g ai/ha): 0
phytotoxicity rating XANST ([3]; 250 g ai/ha): 40
phytotoxicity rating IPOHE ([4]; 63 g ai/ha): 70
phytotoxicity rating IPOHE ([4]; 250 g ai/ha): 100
phytotoxicity rating DIGSA ([5]; 63 g ai/ha): 50
phytotoxicity rating DIGSA ([5]; 250 g ai/ha): 100
phytotoxicity rating SETVI ([6]; 63 g ai/ha): 50
phytotoxicity rating SETVI ([6]; 250 g ai/ha): 100
phytotoxicity rating CHEAL ([7]; 63 g ai/ha): 100
phytotoxicity rating CHEAL ([7]; 250 g ai/ha): 100
phytotoxicity rating ABUTH ([8]; 63 g ai/ha): 100
phytotoxicity rating ABUTH ([8]; 250 g ai/ha): 100
phytotoxicity rating ECHCG ([9]; 63 g ai/ha): 15
phytotoxicity rating ECHCG ([9]; 250 g ai/ha): 99
phytotoxicity rating AMARE ([10]; 63 g ai/ha): 100
phytotoxicity rating AMARE ([10]; 250 g ai/ha): 100
phytotoxicity rating AMBEL ([11]; 63 g ai/ha): 60
phytotoxicity rating AMBEL ([11]; 250 g ai/ha): 98
crop damage rating CORN ([12]; 63 g ai/ha): 0
crop damage rating CORN ([12]; 250 g ai/ha): 50
crop damage rating RICE ([13]; 63 g ai/ha): 5
crop damage rating RICE ([13]; 250 g ai/ha): 55
phytotoxicity rating CASOB ([14]; 63 g ai/ha): 15
phytotoxicity rating CASOB ([14]; 250 g ai/ha): 80
phytotoxicity rating SORHA ([15]; 63 g ai/ha): 70
phytotoxicity rating SORHA ([15]; 250 g ai/ha): 80
phytotoxicity rating XANST ([16]; 63 g ai/ha): 75
phytotoxicity rating XANST ([16]; 250 g ai/ha): 100
phytotoxicity rating IPOHE ([17]; 63 g ai/ha): 100
phytotoxicity rating IPOHE ([17]; 250 g ai/ha): 100
phytotoxicity rating DIGSA ([18]; 63 g ai/ha): 40
phytotoxicity rating DIGSA ([18]; 250 g ai/ha): 55
phytotoxicity rating SETVI ([19]; 63 g ai/ha): 50
phytotoxicity rating SETVI ([19]; 250 g ai/ha): 55
phytotoxicity rating CHEAL ([20]; 63 g ai/ha): 90
phytotoxicity rating CHEAL ([20]; 250 g ai/ha): 100
phytotoxicity rating ABUTH ([21]; 63 g ai/ha): 100
phytotoxicity rating ABUTH ([21]; 250 g ai/ha): 100
phytotoxicity rating ECHCO ([22]; 63 g ai/ha): 70
phytotoxicity rating ECHCO ([22]; 250 g ai/ha): 100
phytotoxicity rating AMARE [23, 27]: 100
phytotoxicity rating AMARE ([23]; 250 g ai/ha, scale 0-100): 100
phytotoxicity rating AMBEL ([24]; 63 g ai/ha): 99
phytotoxicity rating AMBEL ([24]; 250 g ai/ha): 100
crop damage rating CORN ([25]; 63 g ai/ha): 35
crop damage rating CORN ([25]; 250 g ai/ha): 95
crop damage rating RICE ([26]; 63 g ai/ha): 65
crop damage rating RICE ([26]; 250 g ai/ha): 65
